Measurements: patent US20080003250A1, “NOVEL THERAPY FOR HERPESVIRUS INFECTION” (priority 2006, published 2008)

Columns and labels:
[1] = cited from earlier work
HSV-1 = details: cited from earlier work
[2] = tested on: HSV-1 KOS infected Vero cells; assay: Efficacy of implants at preventing cytopathic effect in cell culture; format: cell-based; details: 48 hours post-infection; 0.22 ug ACV or two implants per well
Description: A six-well culture plate was prepared with 4 mL of Dulbecco's modified Eagles' medium (DMEM) (Invitrogen) supplemented with 10% fetal bovine serum and 1% penicillin-streptomycin-Amphotericin B solution (Mediatech) per well. […] The plate was incubated for two days at 37° C. and 5% CO2. Vero cells (ATCC CCL-81) were then added to each well and allowed to grow for another 48 hours until almost confluent. HSV-1 KOS (9.0×10^3 pfu) (ATCC VR-1493) was added to one of each of the paired wells, and 24 and 48 hours later the cells were photographed with a Nikon D1 2.6 megapixel digital camera, set in black and white mode, attached to an Olympus CK-40 microscope. The resulting digital images were compiled for presentation with Adobe Photoshop.
All mock-infected Vero cells remained healthy 48 hours after infection (FIGS. 8A-8C).

[3] = biological target: host eukaryotic DNA polymerase; details: cited from earlier work

For `CC(C)[C@H](N)C(=O)OCCOCn1cnc2c(=O)[nH]c(N)nc21` [valacyclovir], the “bioavailability, of the oral dose consumed” value [1] is given as “about 50%”.

In the case of `Nc1nc2c(ncn2COCCO)c(=O)[nH]1` [ACV, acyclovir], the “50% inhibitory dose against HSV-1” value (HSV-1) is given as “about 0.03 ug/mL”, the “cytopathic effect (CPE) in HSV-1-infected Vero cells” value [2] is given as “Moderate CPE (cell rounding)” and the “plaque formation in HSV-1-infected Vero cells” value [2] is given as “no plaque formation”.

In the case of `Nc1nc2c(ncn2COCCOP(=O)(O)OP(=O)(O)OP(=O)(O)O)c(=O)[nH]1` [ACV-triphosphate, ACV triphosphate], the Ki [3] is listed as 960 ± 80 nM.
